Test results taken from US20230339919A1, “BENZO OXYGEN-CONTAINING HETEROCYCLIC COMPOUNDS AND MEDICAL APPLICATION THEREOF” (AB PHARMA LTD., priority 2020, published 2023).
“Also recorded” adds a separate entry of the source. Read-outs that look alike come from different tables or passages of the source.

What was measured:
healthy mice = test: Acute Toxicity Study (MTD) by gavage in healthy mice; format: in vivo; settings: for survival rate of the mice after administration: 5 days
[1] = as above; format: in vivo; settings: mouse, in vivo, po
[2] = target: BSEP bile salt transporter (Homo sapiens, UniProt O95342); test: BSEP (Bile Salt Export Pump) assay, taurocholic acid uptake by BSEP vesicles, LC/MS/MS; format: in vitro ADME
Sequence of BSEP bile salt transporter (O95342 whole entry): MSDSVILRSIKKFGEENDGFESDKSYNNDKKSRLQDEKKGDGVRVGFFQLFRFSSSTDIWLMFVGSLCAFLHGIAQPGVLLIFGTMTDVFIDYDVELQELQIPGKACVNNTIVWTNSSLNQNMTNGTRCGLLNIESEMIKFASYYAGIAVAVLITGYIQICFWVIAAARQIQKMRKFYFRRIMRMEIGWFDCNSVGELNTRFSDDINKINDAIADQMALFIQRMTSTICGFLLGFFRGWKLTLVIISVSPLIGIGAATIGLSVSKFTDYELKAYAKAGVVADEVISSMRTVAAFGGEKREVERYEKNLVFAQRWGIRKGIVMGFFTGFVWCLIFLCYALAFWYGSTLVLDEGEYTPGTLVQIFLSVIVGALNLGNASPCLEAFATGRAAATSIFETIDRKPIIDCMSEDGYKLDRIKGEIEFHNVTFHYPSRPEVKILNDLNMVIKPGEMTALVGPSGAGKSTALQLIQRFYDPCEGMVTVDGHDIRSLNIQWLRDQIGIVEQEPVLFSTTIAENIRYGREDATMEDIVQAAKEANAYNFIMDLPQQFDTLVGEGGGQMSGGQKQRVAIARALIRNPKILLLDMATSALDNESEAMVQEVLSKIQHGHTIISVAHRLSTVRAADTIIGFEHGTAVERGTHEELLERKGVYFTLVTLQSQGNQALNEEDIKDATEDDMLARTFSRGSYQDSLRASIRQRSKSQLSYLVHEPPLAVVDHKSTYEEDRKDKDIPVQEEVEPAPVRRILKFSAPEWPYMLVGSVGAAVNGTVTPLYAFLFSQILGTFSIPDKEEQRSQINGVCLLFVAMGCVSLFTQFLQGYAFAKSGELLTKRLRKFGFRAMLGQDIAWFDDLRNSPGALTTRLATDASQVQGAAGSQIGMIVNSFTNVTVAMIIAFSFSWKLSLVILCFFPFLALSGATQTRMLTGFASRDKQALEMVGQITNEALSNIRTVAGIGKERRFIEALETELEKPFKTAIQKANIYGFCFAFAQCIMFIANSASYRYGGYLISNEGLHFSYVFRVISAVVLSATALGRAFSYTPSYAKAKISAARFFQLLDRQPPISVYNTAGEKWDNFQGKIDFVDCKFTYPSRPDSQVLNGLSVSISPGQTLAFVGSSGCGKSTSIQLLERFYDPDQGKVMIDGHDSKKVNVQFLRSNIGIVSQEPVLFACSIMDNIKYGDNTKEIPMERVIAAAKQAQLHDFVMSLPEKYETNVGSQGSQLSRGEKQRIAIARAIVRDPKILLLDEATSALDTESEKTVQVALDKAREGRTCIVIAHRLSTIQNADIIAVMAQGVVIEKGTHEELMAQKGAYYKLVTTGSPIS
From the text: In this experiment, we performed a preliminary study on the inhibition of the uptake of the substrate taurocholic acid (TCA) by the BSEP bile salt transporter by LC/MS/MS. The BSEP protein microvesicles with reverse uptake ability were obtained by transfecting Hi5 cells with the BSEP gene, which is capable of TCA uptake and uptake of taurocholic acid. The principle of this experiment is to perform substrate uptake by BSEP protein microcapsules in the presence of energy ATP, the substrate TCA and the candidate compound to be tested, after a certain transit time, the energy, substrate and candidate compound were completely washed out of the microvesicle, and the absorbed substrate TCA was released by lysis of the microvesicle. […] The starting concentration of the sample was 100 mM, diluted in 2-fold gradient with Bravo apparatus, with 11 concentration gradients; the lowest point concentration was 97.65 μM. • 3. Control compound (Glyburide) starting at 20 mM, diluted in 2-fold gradient with Bravo instrument, with 11 concentration gradients; the lowest point concentration was 19.53 μM. • 4. 300 nl of compound was transferred to the middle plate using the ECHO autosampler. • 5. Positive control (HPE) wells and negative control (ZPE) wells were also transferred 300 nl DMSO each. […] Add 14.7 μl of ATP buffer to the corresponding wells of the compound and ZPE, respectively. • 2. Add 14.7 μl of AMP buffer to the corresponding wells of the HPE. • 3. Shake the plate at 25 degrees C. for 10 minutes. • 4. […] Immediately add 5 ul of 0.5M EDTA solution to all wells, and then add 65 μl of Buffer B. All reactions are completed. • 6. Transfer […] of liquid from the end of reaction compound plate to the filter plate using the spiking apparatus. • 7. After placing the liquid receiving plate under the filter plate, use a centrifuge to remove the liquid and discard the liquid received in the receiving plate. • 8. Add 90 μl of buffer B to the filter plate and repeat step 7. Repeat steps 7 and 8 to wash the filter plate a total of three times. • 9. Let the filter plate dry overnight. • 10. Add 81 μl of 80% methanol/water solution to the filter plate the next day. • 11. Apply membrane to the filter plate and vibrate the plate for 15 minutes. • 12. Place a new liquid receiver plate under the filter plate and centrifuge for 5 min to filter all the liquid from the filter plate into the receiver plate. • 13. Add 13.5 μl of internal standard solution to each well of the liquid receiver plate and seal the plate with a sealing film. • 14. Using LC/MS/MS, detect the content of taurocholic acid in the receiver plate.

GPR40 = target: T1, GPR40 (Homo sapiens, UniProt O14842); test: GPR40 agonist activity, FLIPR calcium assay in CHO-K1/GPR40 cells; format: cell-based
T1 construct: expressed in transfected cells; host or cells: CHO-K1
T1 sequence (O14842 whole entry): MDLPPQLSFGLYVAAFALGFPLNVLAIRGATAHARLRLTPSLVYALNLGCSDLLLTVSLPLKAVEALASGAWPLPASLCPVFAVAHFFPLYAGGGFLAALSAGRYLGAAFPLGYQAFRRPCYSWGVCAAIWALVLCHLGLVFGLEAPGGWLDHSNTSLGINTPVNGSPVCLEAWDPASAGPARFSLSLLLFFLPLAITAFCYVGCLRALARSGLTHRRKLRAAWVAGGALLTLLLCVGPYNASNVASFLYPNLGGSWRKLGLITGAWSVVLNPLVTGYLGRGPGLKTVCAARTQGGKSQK
Description: Inoculate CHO-K1/GPR40 cells in 384-well plates at a density of 10,000 cells/well. Cells were incubated at 37° C. for 24 hours in a 5% CO2 incubator. After the experiment, discard the cell culture medium, quickly add […] of 1× FLIPR® Calcium 6 dye containing 2.5 mM/Probenecid to each well and incubate at 37° C. for 2 hours protected from light. For the determination, different concentrations of drug ([…]) were added to the wells and the fluorescence values were read. The fluorescence excitation wavelength was 494 nm and emission wavelength was 516 nm. FLIPR instrument data, EC50 was derived from the formula Y=Bottom+(Top−Bottom)/(1+(EC50/X)^HillSlope).

hERG = hERG (Homo sapiens, UniProt Q12809); test: hERG assay
Sequence of hERG (Q12809 whole entry): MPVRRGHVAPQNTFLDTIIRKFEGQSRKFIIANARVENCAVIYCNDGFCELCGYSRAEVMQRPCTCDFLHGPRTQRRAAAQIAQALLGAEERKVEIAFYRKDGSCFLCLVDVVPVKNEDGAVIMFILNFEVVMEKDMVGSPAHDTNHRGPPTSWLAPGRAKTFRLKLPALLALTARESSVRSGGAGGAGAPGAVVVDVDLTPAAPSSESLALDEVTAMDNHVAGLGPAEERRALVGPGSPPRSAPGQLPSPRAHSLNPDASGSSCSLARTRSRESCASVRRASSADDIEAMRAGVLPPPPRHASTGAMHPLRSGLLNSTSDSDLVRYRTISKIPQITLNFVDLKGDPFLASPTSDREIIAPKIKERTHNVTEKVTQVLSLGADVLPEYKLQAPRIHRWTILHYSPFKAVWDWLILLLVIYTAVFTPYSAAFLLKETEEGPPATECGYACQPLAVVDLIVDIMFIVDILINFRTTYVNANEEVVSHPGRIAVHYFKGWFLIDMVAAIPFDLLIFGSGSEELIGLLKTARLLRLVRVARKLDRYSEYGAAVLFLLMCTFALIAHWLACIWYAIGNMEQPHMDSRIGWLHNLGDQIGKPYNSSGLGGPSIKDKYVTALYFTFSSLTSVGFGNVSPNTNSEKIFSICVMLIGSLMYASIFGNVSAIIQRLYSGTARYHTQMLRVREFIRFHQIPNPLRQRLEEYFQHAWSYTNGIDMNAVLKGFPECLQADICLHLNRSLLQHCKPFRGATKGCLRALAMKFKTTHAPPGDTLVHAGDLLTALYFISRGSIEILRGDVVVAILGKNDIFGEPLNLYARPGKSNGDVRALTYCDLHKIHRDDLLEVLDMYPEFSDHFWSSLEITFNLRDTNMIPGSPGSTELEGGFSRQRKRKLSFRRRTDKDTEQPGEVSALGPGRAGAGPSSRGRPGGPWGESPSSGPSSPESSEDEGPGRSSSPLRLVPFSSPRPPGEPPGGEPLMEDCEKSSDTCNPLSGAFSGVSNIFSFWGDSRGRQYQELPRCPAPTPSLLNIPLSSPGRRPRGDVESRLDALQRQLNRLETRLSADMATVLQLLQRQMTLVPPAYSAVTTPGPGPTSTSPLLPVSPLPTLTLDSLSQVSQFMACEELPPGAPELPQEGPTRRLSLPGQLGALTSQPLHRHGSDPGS

[3] = cited from earlier work
[4] = inhibition of TCA uptake by BSEP vesicles, read-out: Potential inhibitory side effects BSEP (IC50)
[5] = GPR40 agonist activity range (EC50), CHO-K1/GPR40 cells, read-out: GPR40 activity
[6] = Table 4, read-out: GPR40 Activity (hEC50)
[7] = read-out: GPR40 activity (EC50)

Row | Compound | overall / acute toxicity (healthy mice; MTD high dose 600 mg/kg/day, mice, 600 mg/kg/day) | abnormalities in body weight and external and internal observations (healthy mice; during the dosing and 5-day recovery period, 600 mg/kg) | autopsy results (heart, liver, lung, kidney, intestine) (healthy mice; mice, 600 mg/kg) | survival rate of the mice after administration (healthy mice; mice, 600 mg/kg by gavage) | LD50 at 5 days ([1]; mice, 600 mg/kg by gavage, 5 consecutive days, read-out: LD50) | IC50 [2, 4] | IC50 ([2]; read-out: BSEP) | EC50 (GPR40; [5]) | EC50 (GPR40; [6]) | EC50 (GPR40; [7]) | IC50 (hERG) | Ames assay result (Ames assay) | risk of causing hypoglycaemia ([3]; 50 mg once daily, versus control sulphonylureas) | hepatotoxicity ([3]; clinical studies terminated in 2013) | effect on insulin secretion ([3]; when blood glucose levels are normal) | survival rate of the mice after administration (healthy mice; mouse, in vivo, 600 mg/kg) | LD50 at 5 days ([1]; 600 mg/kg)
1 | CC(C)(C)OC(=O)Nc1cc(COc2ccc3c(c2)OC[C@H]3CC(=O)O)c2c(c1)OCO2 [IIb-43] | low and very low | no abnormalities | did not reveal any abnormal changes; also recorded: did not reveal any abnormalities | 100% | > 600 mg/kg | 66.8 µM | > 25 µM | < 0.01 µM | 0.0068 µM | < 0.01 µM | > 30 µM | no relevant side effects |  |  |  |  | 
2 | Cc1cc(OCCCS(C)(=O)=O)cc(C)c1-c1cccc(COc2ccc3c(c2)OC[C@H]3CC(=O)O)c1 [Ref-1] |  |  |  |  |  | 7.1 µM |  |  |  |  |  |  | significantly lower than that of the control sulphonylureas | problems with hepatotoxicity | no effect |  | 
3 | O=C(O)C[C@@H]1COc2cc(OCc3cccc4c3OC(F)(F)O4)ccc21 [IIb-18] |  |  |  |  |  | 162 µM | > 25 µM | < 0.01 µM | 0.0079 µM | < 0.01 µM | > 30 µM | no relevant side effects |  |  |  | 100% | > 600 mg/kg
